Reference: ChEMBL document CHEMBL4507304, “Data for DCP probe TP-021” (2021)

What was measured:
[1] = biological target: Macrophage-stimulating protein receptor (Homo sapiens) (UniProt Q04912); details: Compound concentration 1000.0 nM
[2] = tested on: Fibroblast growth factor receptor 3 (Homo sapiens), P22607 [G697C]; details: Compound concentration 1000.0 nM
[3] = tested on: Epidermal growth factor receptor (Homo sapiens), P00533 [UNDEFINED MUTATION]; details: Compound concentration 1000.0 nM
[4] = biological target: Tyrosine-protein kinase Fgr (Homo sapiens) (UniProt P09769); details: Compound concentration 1000.0 nM
[5] = biological target: Dual specificity mitogen-activated protein kinase kinase 1 (Homo sapiens) (UniProt Q02750); details: Compound concentration 1000.0 nM
[6] = biological target: Serine/threonine-protein kinase B-raf (Homo sapiens) (UniProt P15056); details: Compound concentration 1000.0 nM
[7] = biological target: Interleukin-1 receptor-associated kinase 4 (Homo sapiens) (UniProt Q9NWZ3); details: Compound concentration 1000.0 nM
[8] = biological target: Mitogen-activated protein kinase 13 (Homo sapiens) (UniProt O15264); details: Compound concentration 1000.0 nM
[9] = biological target: Serine/threonine-protein kinase PAK 6 (Homo sapiens) (UniProt Q9NQU5); details: Compound concentration 1000.0 nM
Serine/threonine-protein kinase PAK 6 (Homo sapiens), sequence (Q9NQU5 whole entry, looked up): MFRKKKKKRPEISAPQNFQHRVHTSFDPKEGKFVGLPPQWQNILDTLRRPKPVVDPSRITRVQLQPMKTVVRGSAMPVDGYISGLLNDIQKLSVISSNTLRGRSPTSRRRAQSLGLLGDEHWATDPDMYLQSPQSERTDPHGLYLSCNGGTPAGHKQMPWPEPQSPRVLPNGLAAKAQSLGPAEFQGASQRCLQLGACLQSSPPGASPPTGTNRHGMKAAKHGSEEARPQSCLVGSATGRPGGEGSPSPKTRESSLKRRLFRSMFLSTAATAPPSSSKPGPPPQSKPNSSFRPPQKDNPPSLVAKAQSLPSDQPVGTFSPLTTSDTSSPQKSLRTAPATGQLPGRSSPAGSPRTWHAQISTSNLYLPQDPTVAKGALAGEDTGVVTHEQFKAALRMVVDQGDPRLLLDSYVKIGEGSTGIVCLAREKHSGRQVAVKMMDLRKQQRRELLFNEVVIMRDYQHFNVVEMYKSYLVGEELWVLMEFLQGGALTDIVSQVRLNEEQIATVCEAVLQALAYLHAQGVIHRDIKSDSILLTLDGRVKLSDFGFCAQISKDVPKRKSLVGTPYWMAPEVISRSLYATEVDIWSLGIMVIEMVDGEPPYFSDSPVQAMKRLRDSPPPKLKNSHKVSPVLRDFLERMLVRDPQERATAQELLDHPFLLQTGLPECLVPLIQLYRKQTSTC

[10] = biological target: Serine/threonine-protein kinase PAK 5 (Homo sapiens) (UniProt Q9P286); details: Compound concentration 1000.0 nM
[11] = biological target: Serine/threonine-protein kinase PRP4 homolog (Homo sapiens) (UniProt Q13523); details: Compound concentration 1000.0 nM
[12] = biological target: Cyclin-dependent kinase-like 3 (Homo sapiens) (UniProt Q8IVW4); details: Compound concentration 1000.0 nM
[13] = tested on: Phosphatidylinositol 4,5-bisphosphate 3-kinase catalytic subunit alpha isoform (Homo sapiens), P42336 [E545A]; details: Compound concentration 1000.0 nM
[14] = biological target: Casein kinase II subunit alpha' (Homo sapiens) (UniProt P19784); details: Compound concentration 1000.0 nM
[15] = biological target: Mitogen-activated protein kinase kinase kinase 15 (Homo sapiens) (UniProt Q6ZN16); details: Compound concentration 1000.0 nM
[16] = biological target: Cyclin-dependent kinase 3 (Homo sapiens) (UniProt Q00526); details: Compound concentration 1000.0 nM
[17] = biological target: Mitogen-activated protein kinase kinase kinase 11 (Homo sapiens) (UniProt Q16584); details: Compound concentration 1000.0 nM
[18] = biological target: Serine/threonine-protein kinase NLK (Homo sapiens) (UniProt Q9UBE8); details: Compound concentration 1000.0 nM
[19] = biological target: Serine/threonine-protein kinase PLK4 (Homo sapiens) (UniProt O00444); details: Compound concentration 1000.0 nM
[20] = biological target: Serine/threonine-protein kinase RIO2 (Homo sapiens) (UniProt Q9BVS4); details: Compound concentration 1000.0 nM
[21] = biological target: Activated CDC42 kinase 1 (Homo sapiens) (UniProt Q07912); details: Compound concentration 1000.0 nM
[22] = biological target: Serine/threonine-protein kinase pim-3 (Homo sapiens) (UniProt Q86V86); details: Compound concentration 1000.0 nM
[23] = biological target: Alpha-2A adrenergic receptor (Homo sapiens) (UniProt P08913); details: Compound concentration 10.0 uM
[24] = tested on: Tyrosine-protein kinase ABL1 (Homo sapiens), P00519 [T315I]; details: Compound concentration 1000.0 nM
[25] = biological target: Non-receptor tyrosine-protein kinase TYK2 (Homo sapiens) (UniProt P29597); details: Compound concentration 1000.0 nM
Non-receptor tyrosine-protein kinase TYK2 (Homo sapiens), sequence (P29597 whole entry): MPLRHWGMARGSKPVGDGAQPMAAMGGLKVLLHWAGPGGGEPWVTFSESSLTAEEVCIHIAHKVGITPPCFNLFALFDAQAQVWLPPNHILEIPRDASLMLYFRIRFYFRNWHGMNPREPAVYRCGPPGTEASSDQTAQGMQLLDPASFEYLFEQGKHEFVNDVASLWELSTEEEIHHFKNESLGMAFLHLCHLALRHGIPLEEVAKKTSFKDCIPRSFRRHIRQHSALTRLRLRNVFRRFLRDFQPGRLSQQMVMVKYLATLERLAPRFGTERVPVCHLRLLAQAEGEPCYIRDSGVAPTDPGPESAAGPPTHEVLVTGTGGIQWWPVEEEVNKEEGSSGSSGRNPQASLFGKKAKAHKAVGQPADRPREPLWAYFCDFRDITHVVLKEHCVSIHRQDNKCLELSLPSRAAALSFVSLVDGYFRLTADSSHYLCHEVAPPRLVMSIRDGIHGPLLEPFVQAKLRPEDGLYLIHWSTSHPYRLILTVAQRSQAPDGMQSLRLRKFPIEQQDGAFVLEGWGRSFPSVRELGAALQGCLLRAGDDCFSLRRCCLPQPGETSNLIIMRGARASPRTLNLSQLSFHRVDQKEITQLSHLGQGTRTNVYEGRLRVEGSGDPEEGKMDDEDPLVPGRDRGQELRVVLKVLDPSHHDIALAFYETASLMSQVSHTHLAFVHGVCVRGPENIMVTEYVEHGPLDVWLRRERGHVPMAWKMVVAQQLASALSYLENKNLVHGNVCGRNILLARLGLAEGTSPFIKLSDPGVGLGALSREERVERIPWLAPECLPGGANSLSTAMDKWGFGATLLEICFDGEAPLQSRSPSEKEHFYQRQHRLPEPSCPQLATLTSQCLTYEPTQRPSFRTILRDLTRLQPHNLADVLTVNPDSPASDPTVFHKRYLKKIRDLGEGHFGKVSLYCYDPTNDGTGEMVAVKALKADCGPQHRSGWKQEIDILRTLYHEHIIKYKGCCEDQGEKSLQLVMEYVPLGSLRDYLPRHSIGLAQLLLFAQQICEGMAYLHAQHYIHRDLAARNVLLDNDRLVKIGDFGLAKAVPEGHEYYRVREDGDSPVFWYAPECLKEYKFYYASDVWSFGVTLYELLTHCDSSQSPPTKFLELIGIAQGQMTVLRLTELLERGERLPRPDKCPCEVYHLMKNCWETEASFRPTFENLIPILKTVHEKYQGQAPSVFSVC

[26] = biological target: Tyrosine-protein kinase ABL1 (Homo sapiens) (UniProt P00519); details: Compound concentration 1000.0 nM
[27] = biological target: Serine/threonine-protein kinase WNK3 (Homo sapiens) (UniProt Q9BYP7); details: Compound concentration 1000.0 nM
[28] = tested on: Serine/threonine-protein kinase B-raf (Homo sapiens), P15056 [V600E]; details: Compound concentration 1000.0 nM
[29] = tested on: Mast/stem cell growth factor receptor Kit (Homo sapiens), P10721 [L576P]; details: Compound concentration 1000.0 nM
[30] = biological target: Beta-adrenergic receptor kinase 1 (Homo sapiens) (UniProt P25098); details: Compound concentration 1000.0 nM
[31] = biological target: RAC-gamma serine/threonine-protein kinase (Homo sapiens) (UniProt Q9Y243); details: Compound concentration 1000.0 nM
[32] = biological target: MAP/microtubule affinity-regulating kinase 4 (Homo sapiens) (UniProt Q96L34); details: Compound concentration 1000.0 nM
[33] = biological target: Cyclin-dependent kinase 13 (Homo sapiens) (UniProt Q14004); details: Compound concentration 1000.0 nM
[34] = biological target: Interleukin-1 receptor-associated kinase 1 (Homo sapiens) (UniProt P51617); details: Compound concentration 1000.0 nM
Interleukin-1 receptor-associated kinase 1 (Homo sapiens), sequence (P51617 whole entry, looked up): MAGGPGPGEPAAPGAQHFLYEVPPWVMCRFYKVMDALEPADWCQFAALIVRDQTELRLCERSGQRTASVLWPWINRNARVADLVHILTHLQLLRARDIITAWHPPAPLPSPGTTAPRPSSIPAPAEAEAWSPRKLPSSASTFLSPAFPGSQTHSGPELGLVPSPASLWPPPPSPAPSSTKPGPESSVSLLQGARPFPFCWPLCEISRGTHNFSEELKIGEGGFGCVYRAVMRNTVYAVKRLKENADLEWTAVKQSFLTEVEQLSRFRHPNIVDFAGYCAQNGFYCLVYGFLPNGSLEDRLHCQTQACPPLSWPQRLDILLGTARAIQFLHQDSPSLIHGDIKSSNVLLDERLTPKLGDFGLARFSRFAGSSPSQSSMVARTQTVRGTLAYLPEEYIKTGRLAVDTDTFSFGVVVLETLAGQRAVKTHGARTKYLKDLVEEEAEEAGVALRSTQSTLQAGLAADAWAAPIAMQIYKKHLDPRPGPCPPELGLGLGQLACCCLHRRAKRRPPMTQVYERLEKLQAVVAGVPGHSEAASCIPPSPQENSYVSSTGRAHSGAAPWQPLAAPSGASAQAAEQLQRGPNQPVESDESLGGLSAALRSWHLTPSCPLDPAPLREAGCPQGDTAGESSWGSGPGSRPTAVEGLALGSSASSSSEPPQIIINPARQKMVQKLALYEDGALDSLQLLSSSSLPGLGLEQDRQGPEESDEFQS

[35] = biological target: Death-associated protein kinase 3 (Homo sapiens) (UniProt O43293); details: Compound concentration 1000.0 nM
[36] = biological target: Ephrin type-A receptor 8 (Homo sapiens) (UniProt P29322); details: Compound concentration 1000.0 nM
[37] = biological target: Epidermal growth factor receptor (Homo sapiens) (UniProt P00533); details: Compound concentration 1000.0 nM
[38] = biological target: Serine/threonine-protein kinase 32A (Homo sapiens) (UniProt Q8WU08); details: Compound concentration 1000.0 nM
[39] = biological target: Serine/threonine-protein kinase 26 (Homo sapiens) (UniProt Q9P289); details: Compound concentration 1000.0 nM
[40] = biological target: 5-hydroxytryptamine receptor 6 (Homo sapiens) (UniProt P50406); details: Compound concentration 10.0 uM
[41] = biological target: Myosin-IIIa (Homo sapiens) (UniProt Q8NEV4); details: Compound concentration 1000.0 nM
[42] = biological target: 5-hydroxytryptamine receptor 5A (Homo sapiens) (UniProt P47898); details: Compound concentration 10.0 uM
[43] = biological target: Cyclin-dependent kinase 11B (Homo sapiens) (UniProt P21127); details: Compound concentration 1000.0 nM
Cyclin-dependent kinase 11B (Homo sapiens), sequence (P21127 whole entry): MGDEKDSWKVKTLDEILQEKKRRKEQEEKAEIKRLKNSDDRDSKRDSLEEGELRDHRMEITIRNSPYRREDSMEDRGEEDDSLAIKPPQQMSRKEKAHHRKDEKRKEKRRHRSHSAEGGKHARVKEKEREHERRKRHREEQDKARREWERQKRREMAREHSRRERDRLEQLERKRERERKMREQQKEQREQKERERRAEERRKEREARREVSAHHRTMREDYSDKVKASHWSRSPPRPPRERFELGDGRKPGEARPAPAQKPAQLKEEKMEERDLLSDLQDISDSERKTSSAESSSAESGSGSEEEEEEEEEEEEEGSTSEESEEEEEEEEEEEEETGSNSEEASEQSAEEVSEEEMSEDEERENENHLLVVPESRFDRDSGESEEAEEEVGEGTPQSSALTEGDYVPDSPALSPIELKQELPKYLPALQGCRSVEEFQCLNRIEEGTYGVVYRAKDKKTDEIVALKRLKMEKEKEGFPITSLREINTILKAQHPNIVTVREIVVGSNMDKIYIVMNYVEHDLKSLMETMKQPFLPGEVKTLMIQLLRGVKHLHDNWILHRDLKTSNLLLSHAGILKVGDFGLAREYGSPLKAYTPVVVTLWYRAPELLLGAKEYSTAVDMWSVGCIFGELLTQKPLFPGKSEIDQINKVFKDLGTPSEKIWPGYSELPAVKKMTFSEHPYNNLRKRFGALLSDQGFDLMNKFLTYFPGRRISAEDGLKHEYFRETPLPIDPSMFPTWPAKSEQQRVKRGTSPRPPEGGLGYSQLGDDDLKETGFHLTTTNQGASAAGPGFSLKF

[44] = tested on: Mast/stem cell growth factor receptor Kit (Homo sapiens), P10721 [D816V]; details: Compound concentration 1000.0 nM
[45] = biological target: Phosphatidylinositol 3-kinase catalytic subunit type 3 (Homo sapiens) (UniProt Q8NEB9); details: Compound concentration 1000.0 nM

Macrophage-stimulating protein receptor (Homo sapiens), sequence (Q04912 25-304 limits assumed): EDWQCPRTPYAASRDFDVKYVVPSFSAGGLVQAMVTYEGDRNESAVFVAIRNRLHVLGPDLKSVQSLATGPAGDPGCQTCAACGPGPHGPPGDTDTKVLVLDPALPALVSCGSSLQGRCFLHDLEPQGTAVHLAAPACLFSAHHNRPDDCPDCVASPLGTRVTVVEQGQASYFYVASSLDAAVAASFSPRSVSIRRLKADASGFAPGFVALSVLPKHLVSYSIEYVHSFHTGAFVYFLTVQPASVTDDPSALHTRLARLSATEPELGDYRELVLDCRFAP
Macrophage-stimulating protein receptor (Homo sapiens), sequence (Q04912 310-1400 limits assumed): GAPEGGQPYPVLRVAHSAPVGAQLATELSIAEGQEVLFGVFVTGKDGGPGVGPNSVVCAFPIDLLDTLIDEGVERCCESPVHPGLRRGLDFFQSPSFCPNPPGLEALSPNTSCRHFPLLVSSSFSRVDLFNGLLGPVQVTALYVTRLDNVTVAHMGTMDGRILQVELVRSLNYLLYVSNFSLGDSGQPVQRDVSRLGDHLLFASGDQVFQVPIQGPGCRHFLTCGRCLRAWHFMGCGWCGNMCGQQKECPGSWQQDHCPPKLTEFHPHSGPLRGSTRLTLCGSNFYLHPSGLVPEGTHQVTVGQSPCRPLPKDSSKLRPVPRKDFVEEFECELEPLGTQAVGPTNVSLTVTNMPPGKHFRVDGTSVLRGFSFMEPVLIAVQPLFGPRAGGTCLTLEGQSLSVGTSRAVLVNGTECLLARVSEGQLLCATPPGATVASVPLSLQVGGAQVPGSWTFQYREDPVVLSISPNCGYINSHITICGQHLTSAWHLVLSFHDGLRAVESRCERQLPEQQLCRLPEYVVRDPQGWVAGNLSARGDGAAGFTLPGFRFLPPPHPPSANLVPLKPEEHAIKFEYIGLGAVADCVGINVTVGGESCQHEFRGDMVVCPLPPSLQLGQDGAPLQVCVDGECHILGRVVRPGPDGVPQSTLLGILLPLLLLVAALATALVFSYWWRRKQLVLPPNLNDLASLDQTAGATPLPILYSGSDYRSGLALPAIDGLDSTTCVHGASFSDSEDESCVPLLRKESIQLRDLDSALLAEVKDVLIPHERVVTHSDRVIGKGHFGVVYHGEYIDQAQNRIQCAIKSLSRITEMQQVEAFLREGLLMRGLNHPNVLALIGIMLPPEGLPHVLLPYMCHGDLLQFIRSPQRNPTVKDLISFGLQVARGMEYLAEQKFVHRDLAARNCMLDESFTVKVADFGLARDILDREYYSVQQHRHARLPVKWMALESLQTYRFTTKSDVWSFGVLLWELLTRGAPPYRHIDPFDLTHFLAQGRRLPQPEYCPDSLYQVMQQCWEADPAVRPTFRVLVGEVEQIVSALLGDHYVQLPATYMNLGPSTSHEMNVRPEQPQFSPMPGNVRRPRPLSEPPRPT

N#Cc1ccc(Nc2ccc3[nH]c(=O)[nH]c3c2)c(Cl)c1
inactive: residual activity [1] 100% | residual activity [2] 93% | residual activity [3] 100% | residual activity [4] 100% | residual activity [5] 88% | residual activity [6] 100% | residual activity [7] 100% | residual activity [8] 100% | residual activity [9] 85% | residual activity [10] 100% | residual activity [11] 99% | residual activity [12] 80% | residual activity [13] 100% | residual activity [14] 83% | residual activity [15] 68% | residual activity [16] 100% | residual activity [17] 100% | residual activity [18] 100% | residual activity [19] 87% | residual activity [20] 89% | residual activity [21] 90% | residual activity [22] 100% | inhibition [23] 2.09% | residual activity [24] 93% | residual activity [25] 100% | residual activity [26] 100% | residual activity [27] 100% | residual activity [28] 100% | residual activity [29] 89% | residual activity [30] 100% | residual activity [31] 69% | residual activity [32] 99% | residual activity [33] 100% | residual activity [34] 100% | residual activity [35] 92% | residual activity [36] 100% | residual activity [37] 100% | residual activity [38] 81% | residual activity [39] 96% | inhibition [40] -1.18% | residual activity [41] 97% | inhibition [42] -7.6% | residual activity [43] 100% | residual activity [44] 88% | residual activity [45] 100%

O=C1CCc2cc(Nc3cc(OC4CCOCC4)c([N+](=O)[O-])cc3Cl)ccc2N1
inactive: residual activity [1] 100% | residual activity [2] 79% | residual activity [3] 100% | residual activity [4] 100% | residual activity [5] 72% | residual activity [6] 100% | residual activity [7] 100% | residual activity [8] 100% | residual activity [9] 86% | residual activity [10] 100% | residual activity [11] 100% | residual activity [12] 79% | residual activity [13] 100% | residual activity [14] 76% | residual activity [15] 78% | residual activity [16] 100% | residual activity [17] 100% | residual activity [18] 100% | residual activity [19] 86% | residual activity [20] 89% | residual activity [21] 100% | residual activity [22] 100% | inhibition [23] 4.66% | residual activity [24] 80% | residual activity [25] 100% | residual activity [26] 100% | residual activity [27] 87% | residual activity [28] 100% | residual activity [29] 100% | residual activity [30] 87% | residual activity [31] 94% | residual activity [32] 100% | residual activity [33] 100% | residual activity [34] 98% | residual activity [35] 91% | residual activity [36] 100% | residual activity [37] 100% | residual activity [38] 90% | residual activity [39] 87% | inhibition [40] -2.48% | residual activity [41] 99% | inhibition [42] 6.14% | residual activity [43] 98% | residual activity [44] 100% | residual activity [45] 100%
